How the values were obtained:
[1] = system: streptozotocin-induced diabetic rats; experiment: Electroretinography after topical ocular treatment in diabetic rats; type: in vivo, Sprague Dawley rats; parameters: implicit time of the b-wave at 0 db compared to pretreatment: unit not given beside the values; details: for difference between the amplitude of the second OP (OP2) of the b-wave at 0 db / implicit time of the b-wave at 0 db compared to pretreatment: STZ 60 mg/kg rats; for difference between the amplitude of the second OP (OP2) of the b-wave at 0 db: FIG. 2; for implicit time of the b-wave at 0 db compared to pretreatment: after 14 days of treatment; for b-wave amplitude at −10 db and 0 db / b-wave amplitude at −30 db: compared to the diabetic group
Protocol: (§1) Streptozotocin (STZ), 60 mg/Kg, was administered to Sprague Dawley rats. The animals were divided in four groups as detailed in Table 1:
(§2) Two days after STZ was administered, animals were treated daily with one or two drops of vehicle (Group 2), eye drops of example 4 (Group 3) or eye drops of example 5 (Group 4) for additionally 14 days. Healthy control animals were only treated daily with one or two drops of vehicle (Group 1).
Electroretinography is a technique used clinically to evaluate retinal function in diabetic retinopathy. Several parameters can be affected in early stages of the disease: implicit time, amplitude and oscillatory potentials [Tzekov et al., Survey of Ophthalmology, 1999, 44(1): 53-60]. The increment of the implicit time and diminishment of amplitude of the oscillatory potentials (OPs) are also observed in streptozotocin-induced diabetic rats [Hancok et al., Investigative Ophthalmology & Visual Science, 2004, 45(3): 1002-1008].

[2] = system: Glial Fibrillar Protein (GFAP); experiment: Glial activation by GFAP immunofluorescence (confocal microscopy) in retina of diabetic rats; type: in vivo, Sprague Dawley rats; details: for glial cell activation (GFAP expression, confocal images): day 14, ganglion cell layer, FIG. 3; for GFAP fluorescence value: day 14, normalized to the analysed area (21705.33 μm^2), diabetic Group 2 6871±159, healthy Group 1 2095±26
Protocol: as §1, §2
(§3) On day 14, the animals were sacrificed and ocular tissues paraffined. Glial activation and number of apoptotic cells were evaluated as markers of the first step in the development of diabetic retinopathy: retinal neurodegeneration [Carrasco et al., Diabetes Care; 2007, 30(11): 1-7].
Glial activation was determined analysing Glial Fibrillar Protein (GFAP) immunofluorescence by confocal microscopy. Ocular sections of 7 μm thickness were fixed on high adherent coverslips (Visionbiosystems, Newcastle Upon Tyne, UK). They were desparaffined, rehydrated and washed in phosphate buffer saline (PBS). Unspecific unions were blocked incubating the samples for 1 h in PBS 1% BSA (Bovine Serum Albumin) 0.5% Triton X-100. Thereafter, the primary rabbit anti-human GFAP antibody (Sigma, Madrid, Spain) diluted in the blocking buffer (1:100) was incubated for 36 h at 4° C. After three washings for 5 min with PBS, sections were incubated with a secondary antibody anti […] labelled with Alexa Fluor® 488 (Invitrogen, Eugene, Oreg.) for 1 h at room temperature. Labelled sections were washed and mounted with fluorescent medium containing 4,6-diamidino-2-phenylindole (DAPI) for staining cell nuclei (Vector Laboratories, Burlingame, Calif.). The sections positives for GFAP were captured in a confocal microscope (FV1000, Olympus. Hamburg, Germany) obtaining optical sections with a 488 nm laser for Alexa 488 and a 405 nm laser for DAPI. GFAP fluorescence was quantified in each image with the Fluoview ASW 1.4 software (Olympus, Hamburg, Germany). Results were normalized to the analysed area (21705.33 μm^2).

[3] = system: retinal cells of streptozotocin-induced diabetic rats; experiment: Degree of apoptosis of the retina by TUNEL in diabetic rats; type: in vivo, Sprague Dawley rats; details: for retinal degeneration (TUNEL positive cells, confocal images): after 14 days of treatment, FIG. 4; for % Apoptotic cells GCL: ganglion cell layer; for % Apoptotic cells GCL / % Apoptotic cells INL / % Apoptotic cells ONL / % Apoptotic cells RPE: 14 days of treatment; for % Apoptotic cells INL: inner nuclear layer; for % Apoptotic cells ONL: outer nuclear layer; for % Apoptotic cells RPE: retinal pigment epithelium
Protocol: as §1, §2, §3
The evaluation of the degree of apoptosis of the retina after 14 days of treatment was done by using the TUNEL (“Terminal Transferase dUTP Nick-End Labeling”) technique. The In Situ Cell Death Detection Kit (Roche Diagnostics, Mannheim, Germany) was used. Ocular sections were desparaffined, rehydrated and washed in PBS. Three confocal images (40×) corresponding to a 317.13 μm×317.13 μm surface were obtained for each section. The total number of nuclei and nuclei positive for TUNEL were quantified with the Image J software (http://rsbweb.nih.gov/ij). Staining with propidium iodide (PI) was done for examining the nucleus morphology and discard false positives. […] Retinal degeneration correlated with a higher number of apoptotic cells (brightest labeling means TUNEL positive) observed in streptozotocin-induced diabetic rats (Group 2).
The increment in the percentage of apoptotic cells is significant in diabetic rats (Group 2). Topical ocular treatment with somatostatin (Group 3) or octreotide (Group 4) reduced the number of apoptotic cells till control levels (Group 1).

[4] = Evaluation of the concentration of topical ophthalmic somatostatin in the retina (Western blot); type: in vivo, C57BL/6 mice; details: eye drops of example 1, 1 drop of 5 μL twice a day for 5 days in right eye vs placebo in left eye; 2 hours after last dosage; Western blot densitometry
Protocol: Eight-week old C57BL/6 mice were used. The handling and care of the animals was carried out following the Institut de Recerca del Hospital Universitari Vall d'Hebron protocol and the European Economic Community and A.R.V.O. (Association for Research in Vision and Opthalmology) international guidelines (order 86/609/CEE). The animals were kept in individual cages in the animal facilities at a controlled temperature (20°) and humidity (60%), under constant cycles of light-darkness which last 12 hours and had free access to food and drink. The eye drops of somatostatin-14 from example 1 (1 drop of 5 μL) were administered to the right eye and the placebo (saline solution) to the left eye. Two drops were administered per day, one in the morning and another in the evening, for 5 days. The animals were euthanized by cervical dislocation under anesthetic 2 hours after the last dosage. Immediately afterwards the eyeballs were extracted and were frozen at −80° until handling. […] The quantity of somatostatin-14 in the retina was determined by Western blot. […] A densitometric analysis was carried out (Densitometer GS-800. Bio-Rad. Laboratories, Hercules, Calif., USA) and the results are expressed as arbitrary units. […] On control mice, who received the placebo in both eyes, no differences were detected in the concentration of somatostatin between both eyes.

SMILES	difference between the amplitude of the second OP (OP2) of the b-wave at 0 db ([1]; Left eye (2 drops per day))	implicit time of the b-wave at 0 db compared to pretreatment ([1]; Left eye (2 drops per day))	difference between the amplitude of the second OP (OP2) of the b-wave at 0 db ([1]; Right eye (1 drop per day))	implicit time of the b-wave at 0 db compared to pretreatment ([1]; Right eye (1 drop per day))	b-wave amplitude at −10 db and 0 db [1]	b-wave amplitude at −30 db [1]	glial cell activation (GFAP expression, confocal images) [2]	GFAP fluorescence value [2]	retinal degeneration (TUNEL positive cells, confocal images) [3]	% Apoptotic cells GCL [3] [%]	% Apoptotic cells INL [3] [%]	% Apoptotic cells ONL [3] [%]	% Apoptotic cells RPE [3] [%]	amount of somatostatin in the retina [4]
C[C@@H](O)[C@@H]1NC(=O)[C@H](CCCCN)NC(=O)[C@@H](Cc2c[nH]c3ccccc23)NC(=O)[C@H](Cc2ccccc2)NC(=O)[C@@H](NC(=O)[C@H](N)Cc2ccccc2)CSSC[C@@H](C(=O)N[C@H](CO)[C@@H](C)O)NC1=O [octreotide]	55.1	1.1	45.5	8.8	effective only at the highest dose	prevented the diminishment	prevented glial cell activation	1696±48	prevented retinal degeneration	7	0.1	5	11	–
C[C@H](N)C(=O)NCC(=O)N[C@H]1CSSC[C@@H](C(=O)O)NC(=O)[C@H](CO)NC(=O)[C@H]([C@@H](C)O)NC(=O)[C@H](Cc2ccccc2)NC(=O)[C@H]([C@@H](C)O)NC(=O)[C@H](CCCCN)NC(=O)[C@H](Cc2c[nH]c3ccccc23)NC(=O)[C@H](Cc2ccccc2)NC(=O)[C@H](Cc2ccccc2)NC(=O)[C@H](CC(N)=O)NC(=O)[C@H](CCCCN)NC1=O [somatostatin, somatostatin-14]	68.7	4.9	44.8	9.0	prevented the diminishment	prevented the diminishment	prevented glial cell activation	2514±90	prevented retinal degeneration	14	1	3	6	greater in the treated eye on both animals

Reference: patent publication US9216208B2, “Topical ophthalmic peptide formulation” (BCN Peptides, S.A., priority 2009, dated 2015)
